Data as given in PubChem BioAssay (NCI).
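The concentration for 50% growth inhibition is given as GI50. TGI denotes the concentration required for complete inhibition of growth.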

Key:
Assay in all cases: growth of human tumour cells (NCI), 384-well format
MALME-3M melanoma = tested on: MALME-3M melanoma
A549 NSCLC = tested on: A549 NSCLC
SN12C renal = tested on: SN12C renal
SF-268 CNS = tested on: SF-268 CNS
NCI-H226 lung = tested on: NCI-H226 lung
MCF7 breast = tested on: MCF7 breast
OVCAR-3 ovarian = tested on: OVCAR-3 ovarian
KM12 colon = tested on: KM12 colon
HCT-116 colon = tested on: HCT-116 colon
HOP-62 NSCLC = tested on: HOP-62 NSCLC
OVCAR-4 ovarian = tested on: OVCAR-4 ovarian
MOLT-4 leukemia = tested on: MOLT-4 leukemia
SNB-75 CNS = tested on: SNB-75 CNS
MDA-MB-231 breast = tested on: MDA-MB-231 breast
NCI-H522 lung = tested on: NCI-H522 lung
RXF 393 renal = tested on: RXF 393 renal
UO-31 renal = tested on: UO-31 renal
U251 glioblastoma = tested on: U251 glioblastoma
TK-10 renal = tested on: TK-10 renal
SK-OV-3 ovarian = tested on: SK-OV-3 ovarian
786-0 renal = tested on: 786-0 renal
NCI-H23 lung = tested on: NCI-H23 lung
MDA-MB-468 breast = tested on: MDA-MB-468 breast
MDA-MB-435 melanoma = tested on: MDA-MB-435 melanoma
HCC-2998 colon = tested on: HCC-2998 colon
HS 578T breast = tested on: HS 578T breast
UACC-62 melanoma = tested on: UACC-62 melanoma
CAKI-1 renal = tested on: CAKI-1 renal
NCI-H322M lung = tested on: NCI-H322M lung
SK-MEL-28 melanoma = tested on: SK-MEL-28 melanoma
HT29 colon = tested on: HT29 colon
M14 melanoma = tested on: M14 melanoma
DU-145 prostate = tested on: DU-145 prostate
SW-620 colon = tested on: SW-620 colon
BT-549 breast = tested on: BT-549 breast
CCRF-CEM leukemia = tested on: CCRF-CEM leukemia
EKVX NSCLC = tested on: EKVX NSCLC
SF-295 CNS = tested on: SF-295 CNS
T-47D breast = tested on: T-47D breast
LOX IMVI melanoma = tested on: LOX IMVI melanoma
OVCAR-8 ovarian = tested on: OVCAR-8 ovarian
SK-MEL-5 melanoma = tested on: SK-MEL-5 melanoma
SF-539 CNS = tested on: SF-539 CNS
HCT-15 colon = tested on: HCT-15 colon
HOP-92 NSCLC = tested on: HOP-92 NSCLC
NCI-H460 NSCLC = tested on: NCI-H460 NSCLC
NCI/ADR-RES ovarian = tested on: NCI/ADR-RES ovarian
IGROV1 ovarian = tested on: IGROV1 ovarian
OVCAR-5 ovarian = tested on: OVCAR-5 ovarian
HL-60(TB) leukemia = tested on: HL-60(TB) leukemia
SNB-19 CNS = tested on: SNB-19 CNS
COLO 205 colon = tested on: COLO 205 colon
SR leukemia = tested on: SR leukemia
A498 renal = tested on: A498 renal
ACHN renal = tested on: ACHN renal
UACC-257 melanoma = tested on: UACC-257 melanoma
RPMI-8226 leukemia = tested on: RPMI-8226 leukemia
PC-3 prostate = tested on: PC-3 prostate

## CC(O)c1cc(C(=O)N[C@@H](C)Cn2ccc(-c3ccc(C#N)c(Cl)c3)n2)n[nH]1 (stereo partly specified)
MALME-3M melanoma
  GI50: > 56.3 µM
  TGI: > 100 µM
A549 NSCLC
  GI50: > 93.4 µM
  TGI: > 100 µM
SN12C renal
  GI50: > 100 µM
  TGI: > 100 µM
SF-268 CNS
  GI50: > 76.2 µM
  TGI: > 100 µM
NCI-H226 lung
  GI50: 35.6 µM
  TGI: > 75.9 µM
MCF7 breast
  GI50: 57.7 µM
  TGI: > 100 µM
OVCAR-3 ovarian
  GI50: > 94.2 µM
  TGI: > 100 µM
KM12 colon
  GI50: > 92.4 µM
  TGI: > 100 µM
HCT-116 colon
  GI50: 33.8 µM
  TGI: > 100 µM
HOP-62 NSCLC
  GI50: > 67.6 µM
  TGI: > 100 µM
OVCAR-4 ovarian
  GI50: 31.3 µM
  TGI: > 100 µM
MOLT-4 leukemia
  GI50: 15.2 µM
  TGI: 29 µM
SNB-75 CNS
  GI50: > 74.4 µM
  TGI: > 100 µM
MDA-MB-231 breast
  GI50: 42.1 µM
  TGI: > 100 µM
NCI-H522 lung
  GI50: 43.3 µM
  TGI: > 100 µM
RXF 393 renal
  GI50: 22.9 µM
  TGI: 69.6 µM
UO-31 renal
  GI50: > 45.2 µM
  TGI: > 63 µM
U251 glioblastoma
  GI50: > 100 µM
  TGI: > 100 µM
TK-10 renal
  GI50: > 100 µM
  TGI: > 100 µM
SK-OV-3 ovarian
  GI50: > 64.3 µM
  TGI: > 100 µM
786-0 renal
  GI50: > 100 µM
  TGI: > 100 µM
NCI-H23 lung
  GI50: 27.2 µM
  TGI: > 100 µM
MDA-MB-468 breast
  GI50: 12 µM
  TGI: 42 µM
MDA-MB-435 melanoma
  GI50: > 74.1 µM
  TGI: > 100 µM
HCC-2998 colon
  GI50: > 100 µM
  TGI: > 100 µM
HS 578T breast
  GI50: 65.6 µM
  TGI: > 100 µM
UACC-62 melanoma
  GI50: > 80.4 µM
  TGI: > 100 µM
CAKI-1 renal
  GI50: > 88.3 µM
  TGI: > 100 µM
NCI-H322M lung
  GI50: 34.9 µM
  TGI: > 100 µM
SK-MEL-28 melanoma
  GI50: > 100 µM
  TGI: > 100 µM
HT29 colon
  GI50: > 100 µM
  TGI: > 100 µM
M14 melanoma
  GI50: > 83.3 µM
  TGI: > 100 µM
DU-145 prostate
  GI50: > 100 µM
  TGI: > 100 µM
SW-620 colon
  GI50: > 100 µM
  TGI: > 100 µM
BT-549 breast
  GI50: 36.7 µM
  TGI: 98.6 µM
CCRF-CEM leukemia
  GI50: 31.5 µM
  TGI: > 100 µM
EKVX NSCLC
  GI50: 34.8 µM
  TGI: > 100 µM
SF-295 CNS
  GI50: > 57.4 µM
  TGI: > 100 µM
T-47D breast
  GI50: 17.8 µM
  TGI: 59.4 µM
LOX IMVI melanoma
  GI50: 40.2 µM
  TGI: > 100 µM
OVCAR-8 ovarian
  GI50: 35.3 µM
  TGI: 96.9 µM
SK-MEL-5 melanoma
  GI50: 17.5 µM
  TGI: 36.5 µM
SF-539 CNS
  GI50: > 100 µM
  TGI: > 100 µM
HCT-15 colon
  GI50: 59 µM
  TGI: > 100 µM
HOP-92 NSCLC
  GI50: > 100 µM
  TGI: > 100 µM
NCI-H460 NSCLC
  GI50: > 76.4 µM
  TGI: > 100 µM
NCI/ADR-RES ovarian
  GI50: > 100 µM
  TGI: > 100 µM
IGROV1 ovarian
  GI50: > 100 µM
  TGI: > 100 µM
OVCAR-5 ovarian
  GI50: > 100 µM
  TGI: > 100 µM
HL-60(TB) leukemia
  GI50: 28.9 µM
  TGI: > 61.9 µM
SNB-19 CNS
  GI50: > 100 µM
  TGI: > 100 µM
COLO 205 colon
  GI50: > 82.6 µM
  TGI: > 100 µM
SR leukemia
  GI50: 15.9 µM
  TGI: 33.8 µM
A498 renal
  GI50: > 100 µM
  TGI: > 100 µM
ACHN renal
  GI50: > 46.4 µM
  TGI: > 69.6 µM
UACC-257 melanoma
  GI50: > 80.4 µM
  TGI: > 100 µM
RPMI-8226 leukemia
  GI50: 21.9 µM
  TGI: > 70.8 µM
PC-3 prostate
  GI50: > 100 µM
  TGI: > 100 µM
